From the Deep4Chem optical property database
“And” between values parts separate entries of the source, which are not always exact repeats. Equal values may be shown once. Each block holds one molecule with its values, some of them ahead of it.

Assay: photoluminescence quantum yield (fraction); solvent given as SMILES
[1] = in O=P(c1ccccc1)(c1ccccc1)c1ccccc1Oc1ccccc1P(=O)(c1ccccc1)c1ccccc1

SMILES: CC1(C)c2ccccc2N(c2ccc3c(ccc4nc5ccc6cc(N7c8ccccc8C(C)(C)c8ccccc87)ccc6c5nc43)c2)c2ccccc21
photoluminescence quantum yield (in C1CCCCC1): 0.16
photoluminescence quantum yield (in C1CCOC1): 0.07
photoluminescence quantum yield (in Cc1ccccc1): 0.11
photoluminescence quantum yield (in ClCCl): 0.05

SMILES: CCOC(=O)c1sc2nc3c(c(C#N)c2c1N)CCCC3
photoluminescence quantum yield (in c1ccccc1): 0.046

SMILES: CO[B-]1(OC)n2c(C)cc(C)c2C(c2ccc(I)cc2)=C2C(C)=CC(C)=[N+]21
photoluminescence quantum yield (in ClC(Cl)Cl): 0.52

SMILES: CC1(C)c2ccccc2N(c2cc3c4ccccc4n4c5ccccc5c(c2)c34)c2ccccc21
photoluminescence quantum yield [1]: 0.95

SMILES: N#Cc1c(-n2c3ccccc3c3ccccc32)cccc1-n1c2ccccc2c2ccccc21
photoluminescence quantum yield (in Cc1ccccc1): 0.13
photoluminescence quantum yield [1]: 0.28

SMILES: CC/[NH+]=c1\cc2oc3cc(NCCC(=O)NCCCCC(NC(C)=O)C(=O)OC)c4ccccc4c3nc-2cc1C (configuration not stated)
photoluminescence quantum yield (in CCO): 0.32
photoluminescence quantum yield (in O): 0.46

SMILES: CCCCCCCCC1(CCCCCCCC)c2cc(-c3ccc([N+](=O)[O-])cc3)ccc2-c2ccc(-c3ccc([N+](=O)[O-])cc3)cc21
photoluminescence quantum yield (in C1CCCCC1): 0
photoluminescence quantum yield (in CCO): 0
photoluminescence quantum yield (in CN(C)C=O): 0.31
photoluminescence quantum yield (in CS(C)=O): 0.28
photoluminescence quantum yield (in Cc1ccccc1): 0
photoluminescence quantum yield (in ClC(Cl)Cl): 0.11

SMILES: COc1ccc(-c2pc3ccccc3s2)cc1 (configuration not stated)
photoluminescence quantum yield (in CC#N): 0.054

SMILES: FC(F)(F)c1cc2n(n1)[B-](c1ccccc1)(c1ccccc1)[n+]1ccc3ccccc3c1-2
photoluminescence quantum yield (in C1CCCCC1): 0.999
photoluminescence quantum yield (in Cc1ccccc1): 0.712
photoluminescence quantum yield (in ClCCl): 0.778

SMILES: C(=C\c1cc2ccccc2c2ccccc12)/c1c2ccccc2cc2ccccc12
photoluminescence quantum yield (in C1CCOC1): 0.56

SMILES: Cc1cccc2cc(-c3cc4cccc(C)c4oc3=O)oc12
photoluminescence quantum yield (in CS(C)=O): 0.88

SMILES: COc1cc(OC)cc(C2=C3C(C)=C(I)C(C)=[N+]3[B-](F)(F)n3c(C)c(I)c(C)c32)c1
photoluminescence quantum yield (in CS(C)=O): 0.03

SMILES: CC1(C)c2ccccc2N(c2ccc(C(=O)/C=C(\O)c3ccc(N4c5ccccc5C(C)(C)c5ccccc54)cc3)cc2)c2ccccc21
photoluminescence quantum yield (in c1ccc2c(c1)c1ccccc1n2-c1ccc(-c2ccc(-n3c4ccccc4c4ccccc43)cc2)cc1): 0.86

SMILES: CCN(C)c1ccc(C2=C3C(C)=CC(C)=[N+]3[B-](F)(F)n3c(C)cc(C)c32)cc1
photoluminescence quantum yield (in CO): 0.44

SMILES: N#CC(/N=C/c1c(O)ccc2ccccc12)=C(C#N)/N=C/c1c(O)ccc2ccccc12
photoluminescence quantum yield (in CC#N): 0.37

SMILES: c1ccc(-c2cc(-c3ccc(-c4nc(-c5ccccn5)c(-c5ccccn5)[nH]4)cc3)cc(-c3ccccn3)n2)nc1
photoluminescence quantum yield (in C1CCOC1): 0.06
photoluminescence quantum yield (in CC#N): 0.08
photoluminescence quantum yield (in CC(C)=O): 0.201
photoluminescence quantum yield (in CCCCCC): 0.006
photoluminescence quantum yield (in CCO): 0.202
photoluminescence quantum yield (in CCOC(C)=O): 0.153
photoluminescence quantum yield (in CN(C)C=O): 0.135
photoluminescence quantum yield (in CO): 0.078
photoluminescence quantum yield (in CS(C)=O): 0.111
photoluminescence quantum yield (in ClC(Cl)Cl): 0.13
photoluminescence quantum yield (in ClCCl): 0.145
photoluminescence quantum yield (in O): 0.045

SMILES: COc1cc(C2=C(c3cc(OC)c(OC)c(OC)c3)C(c3ccc(C(C)(C)C)cc3)=[N+]3C2=Nc2c(-c4cc(OC)c(OC)c(OC)c4)c(-c4cc(OC)c(OC)c(OC)c4)c(-c4ccc(C(C)(C)C)cc4)n2[B-]3(F)F)cc(OC)c1OC
photoluminescence quantum yield (in Cc1ccccc1): 0.001

SMILES: CN(C)c1ccc(C#Cc2ccc3ccc4ccc(C#Cc5ccc(N(C)C)cc5)c5ccc2c3c45)cc1
photoluminescence quantum yield (in CCCCCC): 0.632
photoluminescence quantum yield (in CO): 0.256
photoluminescence quantum yield (in ClCCl): 0.534

SMILES: O=c1cc(C(F)(F)F)c2cc3c4c(c2o1)CCCN4CCC3
photoluminescence quantum yield (in CCC#N): 0.76
photoluminescence quantum yield (in CCCCCCCl): 0.95
photoluminescence quantum yield (in CCCCl): 0.77
photoluminescence quantum yield (in CCO): 0.62
photoluminescence quantum yield (in OCC(F)(F)F): 0.47

SMILES: CCCCOc1ccc(-c2cc3c(o2)c(-c2ccc(OCCCC)cc2)c2n3[B-](F)(F)[N+]3=Cc4c(-c5ccc(OCCCC)cc5)c5oc(-c6ccc(OCCCC)cc6)cc5n4[B-](F)(F)[N+]3=C2)cc1
photoluminescence quantum yield (in C1CCOC1): 0.44
photoluminescence quantum yield (in CN(C)C=O): 0.32
photoluminescence quantum yield (in CS(C)=O): 0.3
photoluminescence quantum yield (in Cc1ccccc1): 0.37
photoluminescence quantum yield (in ClC(Cl)Cl): 0.41
photoluminescence quantum yield (in ClCCl): 0.4

SMILES: CCCCCCN(CCCCCC)c1ccc(C#Cc2ccc(-c3ccc(C#Cc4ccc(N(CCCCCC)CCCCCC)cc4)cc3)cc2)cc1
photoluminescence quantum yield (in Cc1ccccc1): 0.87

SMILES: N#Cc1ccc(N2c3ccccc3C(c3ccccc3)(c3ccccc3)c3ccccc32)cc1
photoluminescence quantum yield (in Cc1ccccc1): 0.22

SMILES: CCCC1=C(CCC)c2cccc3c2c(cc2nc4ccccc4nc23)O1
photoluminescence quantum yield (in ClCCl): 0.52

SMILES: F[B-]1(F)Oc2ccccc2-c2cnc3ccccc3[n+]21
photoluminescence quantum yield (in Cc1ccccc1): 0.086

SMILES: CCCCCCCCCCCCN1C(=O)c2c(c3ccc4cc(-c5ccc(F)cc5)c(OC)cc4c3c3c2ccc2cc(-c4ccc(F)cc4)c(OC)cc23)C1=O
photoluminescence quantum yield (in ClCCl): 0.153

SMILES: c1ccc([B-]2(c3ccccc3)Oc3ccc4ccccc4c3-c3c4ccccc4nc[n+]32)cc1
photoluminescence quantum yield (in Cc1ccccc1): 0.25

SMILES: CCCCCCCCC1(CCCCCCCC)c2cc(-c3ccccc3)ccc2-c2ccc(-c3ccccc3)cc21
photoluminescence quantum yield (in ClC(Cl)Cl): 0.85

SMILES: CC(C)c1cccc(C(C)C)c1N1C(=O)c2cccc3c(Oc4ccc(C(C)(C)c5ccccc5)cc4)ccc(c23)C1=O
photoluminescence quantum yield (in ClCCl): 0.11

SMILES: c1ccc(-n2c(-c3cccc4ccccc34)nc3c4cccc5ccc6cccc(c6c54)c32)cc1
photoluminescence quantum yield (in Cc1ccccc1): 1

SMILES: N#Cc1c(-n2c3ccc(-c4ccccc4)cc3c3cc(-c4ccccc4)ccc32)c(-n2c3ccccc3c3ccccc32)c(-n2c3ccc(-c4ccccc4)cc3c3cc(-c4ccccc4)ccc32)c(-n2c3ccccc3c3ccccc32)c1-n1c2ccc(-c3ccccc3)cc2c2cc(-c3ccccc3)ccc21
photoluminescence quantum yield (in Cc1ccccc1): 0.83

SMILES: CC(C)[Si](C#Cc1c2ccccc2c(C#Cc2c3ccccc3c(C#Cc3c4ccccc4c(C#Cc4c5ccccc5c(C#Cc5c6ccccc6c(C#C[Si](C(C)C)(C(C)C)C(C)C)c6ccccc56)c5ccccc45)c4ccccc34)c3ccccc23)c2ccccc12)(C(C)C)C(C)C
photoluminescence quantum yield (in Cc1ccccc1): 0.018

The next lines start with the values.

photoluminescence quantum yield (in CC#N): 0.3
photoluminescence quantum yield (in CO): 0.11
photoluminescence quantum yield (in O): 0.07
SMILES: Nc1cccc2cn[nH]c12

photoluminescence quantum yield (in ClCCl): 0.35
SMILES: C(=C\c1cnc2ccccc2n1)/c1ccc(-c2ccc(N(c3ccccc3)c3ccccc3)cc2)cc1

photoluminescence quantum yield (in ClCCl): 0.08
SMILES: CC(C)[Si](C#Cc1ccc(C#C[Si](C(C)C)(C(C)C)C(C)C)c2nc3c4ccccc4c(=O)c4ccccc4c3nc12)(C(C)C)C(C)C

photoluminescence quantum yield (in C1COCCO1): 0.1
SMILES: c1ccc(-c2cc(-c3ccccc3)cc(-c3ccccc3)c2)cc1

photoluminescence quantum yield (in ClCCl): 0.5
SMILES: C=C[Si]1(C)c2ccccc2-c2cc3c(cc21)-c1ccccc1[Si]3(C)C=C (configuration not stated)

photoluminescence quantum yield (in ClCCl): 0.143
SMILES: C(S/C=C/c1ccc(-c2ccc(/C=C/SC=C(c3ccccc3)c3ccccc3)cc2)cc1)=C(c1ccccc1)c1ccccc1

photoluminescence quantum yield (in ClCCl): 0.02
SMILES: COc1ccc(-c2c3cc4ccccc4cc3c(C#Cc3ccccc3)c3cc4ccccc4cc23)cc1

photoluminescence quantum yield (in CCO): 0.0057
photoluminescence quantum yield (in ClCCl): 0.0137
photoluminescence quantum yield (in O): 0.01
SMILES: Oc1c(-c2ccco2)cccc1-c1nc2ccccc2s1

photoluminescence quantum yield (in ClCCl): 0.0034
SMILES: CCOC(=O)/N=c1/oc2c(OC)cccc2cc1C#N

photoluminescence quantum yield (in ClC(Cl)Cl): 0.41 and 0.408
SMILES: CC(C)(C)n1c(=O)c2cc3ccc4cccc5ccc(c2c1=O)c3c45

photoluminescence quantum yield (in C1CCCCC1): 0.39
photoluminescence quantum yield (in CC#N): 0.13
photoluminescence quantum yield (in ClCCl): 0.24
SMILES: O=S1(=O)c2ccc(-c3c4ccccc4cc4ccccc34)cc2-c2cc(-c3c4ccccc4cc4ccccc34)ccc21

photoluminescence quantum yield (in C1COCCO1): 0.54
photoluminescence quantum yield (in CN(C)C=O): 0.353
photoluminescence quantum yield (in CO): 0.035
photoluminescence quantum yield (in CS(C)=O): 0.013
photoluminescence quantum yield (in c1ccccc1): 0.72
SMILES: O=C1/C(=C2\Sc3ccccc3C2=O)Sc2ccccc21

photoluminescence quantum yield (in C1COCCO1): 0.11
photoluminescence quantum yield (in CC#N): 0.1
photoluminescence quantum yield (in CC(C)O): 0.16
photoluminescence quantum yield (in CCO): 0.14
photoluminescence quantum yield (in CCOC(C)=O): 0.08
photoluminescence quantum yield (in CN(C)C=O): 0.13
photoluminescence quantum yield (in CO): 0.14
photoluminescence quantum yield (in CS(C)=O): 0.15
photoluminescence quantum yield (in OCC(O)CO): 0.11
photoluminescence quantum yield (in OCCO): 0.21
SMILES: Nc1ncnc2c1c(-c1ccc3ccccc3c1)nn2[C@H]1C[C@H](O)[C@@H](CO)O1

photoluminescence quantum yield (in C1CCCCC1): 0.17
photoluminescence quantum yield (in CC#N): 0.002
photoluminescence quantum yield (in CO): 0.002
photoluminescence quantum yield (in ClC(Cl)Cl): 0.16
SMILES: CN(C)c1ccc(/C=C/c2ccc(-c3nc(C#N)c(C#N)n3C)cc2)cc1

photoluminescence quantum yield (in ClCCl): 0.44
SMILES: CCCc1ccc(C#Cc2cc(C#Cc3ccc(CCC)cc3)c3ccc4c(C#Cc5ccc(N(C)C)cc5)cc(C#Cc5ccc(CCC)cc5)c5ccc2c3c54)cc1

photoluminescence quantum yield (in c1ccccc1): 0.076
SMILES: COc1ccc(-c2nc3ccccc3oc2=O)cc1

photoluminescence quantum yield (in ClCCl): 0.002
SMILES: COc1ccc(Oc2ccc3c4c(cccc24)C(=O)N(c2c(C(C)C)cccc2C(C)C)C3=O)cc1

photoluminescence quantum yield (in CC#N): 0.55
SMILES: c1ccc(-c2nc(-c3ccc(-c4nc(-c5ccccc5)c(-c5ccccc5)[nH]4)s3)[nH]c2-c2ccccc2)cc1

photoluminescence quantum yield (in ClCCl): 0.4
SMILES: CN(C)c1ccc(/C=C/c2cc(/C=C/c3ccc(N(C)C)cc3)ncn2)cc1

photoluminescence quantum yield (in CCCCCC): 0.34
SMILES: COc1ccc2c(c1)N(c1ccccc1-c1ccccc1)c1cc3c(cc1=N2)Oc1c(cc(C(C)(C)C)cc1C(C)(C)C)N=3

photoluminescence quantum yield (in CCCCCC): 0.04
SMILES: CC(C)[Si](C#Cc1ccc(C#C[Si](C(C)C)(C(C)C)C(C)C)c2nc3c(nc12)Cc1ccccc1-3)(C(C)C)C(C)C

photoluminescence quantum yield (in C1CCOC1): 0.27
SMILES: CCC1(CC)c2cc(N(c3ccccc3)c3ccccc3)ccc2-c2c1c1c(c3c2C(CC)(CC)c2cc(N(c4ccccc4)c4ccccc4)ccc2-3)C(CC)(CC)c2cc(N(c3ccccc3)c3ccccc3)ccc2-1

photoluminescence quantum yield (in C1CCOC1): 0.42
SMILES: N#Cc1c(N2CCCCC2)cc(-c2cccc3ccccc23)c2c1CCc1ccccc1-2

photoluminescence quantum yield (in ClCCl): 0.00075
SMILES: CCOC(=O)C1=C(C(=O)OCC)C2(c3ccccc3-c3ccccc32)[C@@H](c2ccc([N+](=O)[O-])cc2)C=C2c3cc(OC)c(OC)cc3CCN21

photoluminescence quantum yield (in ClCCl): 0.14
SMILES: CCCCN(CCCC)c1ccc(C#Cc2cc(C#Cc3c(F)c(F)c(F)c(F)c3F)c(C#Cc3ccc(N(CCCC)CCCC)cc3)cc2C#Cc2c(F)c(F)c(F)c(F)c2F)cc1
